Reference: patent US8647867B2, “Cell cultivation method and cell culture” (National University Corportion Okayama University, priority 2005, dated 2014)

Legend:
Format in all cases: cell-based
porcine pancreatic islet = experiment: Morphological study of cultured porcine pancreatic islet by electron microscope (morphological criteria, points); conditions: porcine pancreatic islets, day 5 of culture
Procedure: (§1) As the inspection method of cultured pancreatic islets, a method is mentioned in which the following 4 items as morphological criteria are evaluated at 5 levels (1 to 5 points) (see, literature: Matsumoto S, Qualley S A, Goel S, et al., Effect of the two-layer (University of Wisconsin solution-Perfluorochemical plus 02) method of pancreas preservation on human islet isolation as assessed by Edmonton isolation protocol. Transplantation 2002; 74: 1414).
(§2) Evaluation is performed at 5 levels of “flat: 1 point”, “approximately flat: 2 points”, “irregularly spherical: 3 points”, “approximately spherical: 4 points”, and “spherical: 5 points”.
(§3) Evaluation is performed at 5 levels of “irregular: 1 point”, “approximately irregular: 2 points”, “somewhat well-rounded: 3 points”, “approximately well-rounded: 4 points”, and “well-rounded: 5 points”. Among these, “well-rounded: 5 points” is most preferable.
(§4) Evaluation is performed at 5 levels of “fragmented: 1 point”, “approximately fragmented: 2 points”, “somewhat solid/compact: 3 points”, “approximately solid/compact: 4 points”, and “solid/compact: 5 points”. Among these, “solid/compact: 5 points” is most preferable.
Evaluation is performed at 5 levels of “smaller than 100 μm for individual cultured pancreatic islets (all <100 μm): 1 point”, “100 to 150 μm for individual cultured pancreatic islets: 2 points”, “[…] for individual cultured pancreatic islets: 3 points”, “150 to 200 μm for individual cultured pancreatic islets: 4 points”, and “larger than 200 μm for at least 10% of individual cultured pancreatic islets (>10%>200 μm): 5 points”. Among these, “larger than 200 μm for at least 10% of individual cultured pancreatic islets: 5 points” is most preferable.
In the above-described criteria, the shape “flat” means that when a pancreatic islet is considered to be elliptic sphere, the ratio of major axis/minor axis is at least 10, the shape “approximately flat” means that the above-described ratio of major axis/minor axis is at least 5 and less than 10, the shape “irregularly spherical” means that the above-described ratio of major axis/minor axis is at least 2 and less than 5, the shape “approximately spherical” means that the above-described ratio of major axis/minor axis is at least 1.2 and less than 2, and the shape “spherical” means that the above-described ratio of major axis/minor axis is less than 1.2. […]

human hepatocyte = experiment: Metabolic ability of ammonia in cultured human hepatocyte; conditions: culture without insert; for ammonia metabolic rate: ammonium sulfate 0.56 mM, after 24 hours
Description: Donor liver judged to be unsuitable for transplantation in the United States was obtained from National Disease Research Interchange via HUMAN & ANIMAL BRIDGING […] ORGANIZATION laboratory (Ichikawa city, Chiba prefecture, responsible person) in the form of liver block (130 g) which was then separated into hepatocyte in the same manner as for the above-described isolation of porcine hepatocyte in Example 1.

porcine hepatocyte [1] = experiment: Morphological study of cultured porcine hepatocyte by phase-contrast and electron microscope
Procedure: Recently, it has been known that when three-dimensional culture of cells is performed on scaffold, cell functions are improved and maintained. […]

human pancreatic islet [2] = experiment: Insulin production ability of cultured human pancreatic islet
Procedure: Healthy isolated human pancreatic islets provided from Alberta University in Canada (those skilled in the art can obtain them from Canada, Alberta University, human pancreatic islet transplantation program, Dr. Jonathan R T. Lakey) were seeded in a T25 10 culture flask.
Insulin production abilities of cultured human pancreatic islet were determined and compared between groups A and B. Using low glucose DMEM (glucose concentration: […]) (available from GIBCO, Oakland, N.J.) supplemented with 10% FCS, nicotineamide 10 mM and penicillin G/streptomycin, cells were cultured for 24 hours until 60% confluency (low glucose). Then, the medium was changed for high glucose DMEM (glucose concentration: […]) (available from GIBCO, Oakland, N.J.) supplemented with 10% FCS, nicotineamide 10 mM and penicillin G/streptomycin, and cells were cultured for 6 hours (high glucose). After high glucose culture, the medium was exchanged for low glucose DMEM and cells were cultured for 6 hours (low glucose (after)). After respective culture operations, the production amount of insulin in the culture medium (μg/l) was determined by an immunostaining method using a rabbit anti-human insulin antibody (available from DakoCytomation K. K., Kyoto, Japan).

human pancreatic islet [3] = experiment: Morphological study of cultured human pancreatic islet by electron microscope (morphological criteria, points); conditions: human pancreatic islets, day 5 of culture
Procedure: as §1, §2, §3, §4
Evaluation is performed at 5 levels of “smaller than 100 μm for individual cultured pancreatic islets (all <100 μm): 1 point”, “100 to 150 μm for individual cultured pancreatic islets: 2 points”, “[…] for individual cultured pancreatic islets: 3 points”, “150 to 200 μm for individual cultured pancreatic islets: 4 points”, and “larger than 200 μm for at least 10% of individual cultured pancreatic islets (>10%>200 μm): 5 points”. Among these, “larger than 200 μm for at least 10% of individual cultured pancreatic islets: 5 points” is most preferable. […]

porcine hepatocyte [4] = experiment: Metabolic ability of lidocaine in cultured porcine hepatocyte; design: lidocaine metabolic rate: unit not given beside the values; conditions: for lidocaine metabolic rate: lidocaine 1 mg/ml, after 24 hours
[5] = porcine hepatocyte, culture without insert, days 1, 7 and 14

CC(=O)N[C@@H](CCCNC(=N)N)C(=O)N[C@@H](C)C(=O)N[C@@H](CC(=O)O)C(=O)N[C@@H](C)C(=O)N[C@@H](CCCNC(=N)N)C(=O)N[C@@H](C)C(=O)N[C@@H](CC(=O)O)C(=O)N[C@@H](C)C(=O)N[C@@H](CCCNC(=N)N)C(=O)N[C@@H](C)C(=O)N[C@@H](CC(=O)O)C(=O)N[C@@H](C)C(=O)N[C@@H](CCCNC(=N)N)C(=O)N[C@@H](C)C(=O)N[C@@H](CC(=O)O)C(=O)N[C@@H](C)C(N)=O [Group A, Ac-(RADA)4-CONH2]
pancreatic islet morphology: 1. shape (porcine pancreatic islet): 5 (spherical: 5 points)
pancreatic islet morphology: 2. border shape (porcine pancreatic islet): 5 (well-rounded: 5 points)
pancreatic islet morphology: 3. integrity (porcine pancreatic islet): 5 (solid/compact: 5 points)
pancreatic islet morphology: sum of the evaluation values (porcine pancreatic islet): 18 points
ammonia metabolic rate (human hepatocyte; Table 4(a), day 1 of culture): 45.0
ammonia metabolic rate (human hepatocyte; Table 4(a), day 3 of culture): 32.8
ammonia metabolic rate (human hepatocyte; Table 4(a), day 5 of culture): 20.4
ammonia metabolic rate (human hepatocyte; Table 4(b), day 1 of culture): 45.0
ammonia metabolic rate (human hepatocyte; Table 4(b), day 3 of culture): 32.8
ammonia metabolic rate (human hepatocyte; Table 4(b), day 5 of culture): 20.4
ammonia metabolic rate as compared with collagen type I (monolayer) (group B) (human hepatocyte; days 1, 3 and 5): significantly better
ammonia metabolic rate as compared with collagen type I (monolayer) (group B) and Matrigel (group C) (human hepatocyte; days 1, 3 and 5): significantly better
formation of cell adhesion apparatus and bile canaliculi between hepatocytes (porcine hepatocyte [1]; culture with insert, day 3 of culture, transmission electron microscope): a cell adhesion apparatus 5 and a bile canaliculi 6 were formed between hepatocytes
formation of three-dimensional spheroid by hepatocytes (porcine hepatocyte [1]; culture without insert, phase-contrast microscope days 1, 7, 14, electron microscope day 5): formation of three-dimensional spheroid by hepatocytes was confirmed
production amount of insulin in the culture medium (human pancreatic islet [2]; human islets (10 seeded), day 1 of culture, low glucose (100 g/l, 24 hours)): 0.60 µg/L
production amount of insulin in the culture medium (human pancreatic islet [2]; human islets, day 1 of culture, high glucose (450 g/l, 6 hours)): 1.89 µg/L
production amount of insulin in the culture medium (human pancreatic islet [2]; human islets, day 1 of culture, low glucose (after), 6 hours): 1.13 µg/L
production amount of insulin in the culture medium (human pancreatic islet [2]; human islets, day 3 of culture, high glucose (450 g/l, 6 hours)): 1.68 µg/L
production amount of insulin in the culture medium (human pancreatic islet [2]; human islets, day 3 of culture, low glucose (100 g/l, 24 hours)): 0.58 µg/L
production amount of insulin in the culture medium (human pancreatic islet [2]; human islets, day 3 of culture, low glucose (after), 6 hours): 1.11 µg/L
production amount of insulin in the culture medium (human pancreatic islet [2]; human islets, day 5 of culture, high glucose (450 g/l, 6 hours)): 1.43 µg/L
production amount of insulin in the culture medium (human pancreatic islet [2]; human islets, day 5 of culture, low glucose (100 g/l, 24 hours)): 0.51 µg/L
production amount of insulin in the culture medium (human pancreatic islet [2]; human islets, day 5 of culture, low glucose (after), 6 hours): 1.10 µg/L
production amount of insulin in the culture medium (human pancreatic islet [2]; human islets, day 7 of culture, high glucose (450 g/l, 6 hours)): 0.76 µg/L
production amount of insulin in the culture medium (human pancreatic islet [2]; human islets, day 7 of culture, low glucose (100 g/l, 24 hours)): 0.41 µg/L
production amount of insulin in the culture medium (human pancreatic islet [2]; human islets, day 7 of culture, low glucose (after), 6 hours): 0.54 µg/L
amount of insulin secreted in high glucose concentration (response to glucose concentration) (human pancreatic islet [2]; human pancreatic islet, day 7 of culture): increased
pancreatic islet morphology: 1. shape (human pancreatic islet [3]): 5 (spherical: 5 points)
pancreatic islet morphology: 3. integrity (human pancreatic islet [3]): 5 (solid/compact: 5 points)
pancreatic islet morphology: sum of the evaluation values (human pancreatic islet [3]): 16 points
lidocaine metabolic rate (porcine hepatocyte [4]; Table 2(a), culture without insert, day 1 of culture): 40.0
lidocaine metabolic rate (porcine hepatocyte [4]; Table 2(a), culture without insert, day 7 of culture): 31.9
lidocaine metabolic rate (porcine hepatocyte [4]; Table 2(a), culture without insert, day 14 of culture): 19.1
lidocaine metabolic rate (porcine hepatocyte [4]; Table 2(c), culture with insert, day 1 of culture): 44.0
lidocaine metabolic rate (porcine hepatocyte [4]; Table 2(c), culture with insert, day 7 of culture): 36.9
lidocaine metabolic rate (porcine hepatocyte [4]; Table 2(c), culture with insert, day 14 of culture): 32.4
lidocaine metabolic rate (porcine hepatocyte [4]; Table 2(c), culture with insert, day 21 of culture): 30.2
lidocaine metabolic rate (porcine hepatocyte [4]; Table 2b, culture without insert, day 1 of culture): 40.8
lidocaine metabolic rate (porcine hepatocyte [4]; Table 2b, culture without insert, day 7 of culture): 32.2
lidocaine metabolic rate (porcine hepatocyte [4]; Table 2b, culture without insert, day 14 of culture): 21.0
lidocaine metabolic rate as compared with collagen type I (monolayer) (group B), Matrigel (group C) and collagen sandwich (group D) (porcine hepatocyte [4]; porcine hepatocyte, culture with insert, days 1, 7, 14 and 21): significantly better
lidocaine metabolic rate as compared with collagen type I (monolayer) (group B) (porcine hepatocyte [4]; [5]): significantly better
lidocaine metabolic rate as compared with collagen type I (monolayer) (group B) and Matrigel (group C) (porcine hepatocyte [4]; [5]): significantly better
